From ChEMBL document CHEMBL3045518, “Synthesis of novel 3-[5-ethyl-2-(2-phenoxy-ethyl)-pyridin]-5-substituted isoxazoline libraries via 1,3-dipolar cycloaddition and evaluation of antimicrobial activities” (2006) come the findings set out here.

Common to all, as to type: functional
Test [1] relates to Escherichia coli. The experiment in a line: Antibacterial activity against Escherichia coli by microdilution method.
The test system of test [2] is Fusarium verticillioides. The test is described as follows: Antifungal activity against Fusarium verticillioides after 48 hr by microdilution method.
The subject of test [3] is Aspergillus flavus. The experiment in a line: Antifungal activity against Aspergillus flavus after 48 hr by microdilution method.
In test [4] the test system is Trichoderma. The experiment in a line: Antifungal activity against Trichoderma sp. at 25 ug/disk after 48 hr by disk diffusion method. The settings on record: read-out: DIZ.
Test [5] deals with Xanthomonas oryzae. The experiment in a line: Antibacterial activity against Xanthomonas oryzae at 25 ug/disk after 24 hr by disk diffusion method. The following applies: read-out: DIZ.
The test system of test [6] is Trichoderma. The test is described as follows: Antifungal activity against Trichoderma sp. after 48 hr by microdilution method.
Test [7] deals with Aspergillus flavus. The test is described as follows: Antifungal activity against Aspergillus flavus at 25 ug/disk after 48 hr by disk diffusion method. The settings on record: read-out: DIZ.
Test [8] concerns Fusarium oxysporum. The experiment in a line: Antifungal activity against Fusarium oxysporum after 48 hr by microdilution method.
Test [9] has as its system Bacillus subtilis. The experiment in a line: Antibacterial activity against Bacillus subtilis at 25 ug/disk after 24 hr by disk diffusion method. The following applies: read-out: DIZ.
In test [10] the test system is Escherichia coli. The test is described as follows: Antibacterial activity against Escherichia coli at 25 ug/disk after 24 hr by disk diffusion method. The following applies: read-out: DIZ.
For test [11], the system named is Pseudomonas fluorescens. The test is described as follows: Antibacterial activity against Pseudomonas fluorescens by microdilution method.
The subject of test [12] is Xanthomonas euvesicatoria pv. sesami. The test is described as follows: Antibacterial activity against Xanthomonas campestris pv. sesami by microdilution method.
In test [13] the test system is Bacillus subtilis. The test is described as follows: Antibacterial activity against Bacillus subtilis by microdilution method.
Test [14] relates to Xanthomonas oryzae. The experiment in a line: Antibacterial activity against Xanthomonas oryzae by microdilution method.
Test [15] has as its system Penicillium sp. The test is described as follows: Antifungal activity against Penicillium sp. after 48 hr by microdilution method.
Test [16] concerns Aspergillus niger. The experiment in a line: Antifungal activity against Aspergillus niger at 25 ug/disk after 48 hr by disk diffusion method. The settings on record: read-out: DIZ.
In test [17] the test system is Fusarium verticillioides. The experiment in a line: Antifungal activity against Fusarium verticillioides at 25 ug/disk after 48 hr by disk diffusion method. The settings on record: read-out: DIZ.
In test [18] the test system is Xanthomonas euvesicatoria pv. sesami. The test is described as follows: Antibacterial activity against Xanthomonas campestris pv. sesami at 25 ug/disk after 24 hr by disk diffusion method. The following applies: read-out: DIZ.
Test [19] deals with Aspergillus niger. The experiment in a line: Antifungal activity against Aspergillus niger after 48 hr by microdilution method.
The subject of test [20] is Penicillium sp. The experiment in a line: Antifungal activity against Penicillium sp. at 25 ug/disk after 48 hr by disk diffusion method. The following applies: read-out: DIZ.
Test [21] has as its system Fusarium oxysporum. The test is described as follows: Antifungal activity against Fusarium oxysporum at 25 ug/disk after 48 hr by disk diffusion method. The following applies: read-out: DIZ.
Test [22] deals with Pseudomonas fluorescens. The experiment in a line: Antibacterial activity against Pseudomonas fluorescens at 25 ug/disk after 24 hr by disk diffusion method. The following applies: read-out: DIZ.

Structures are written as SMILES. Converted amounts (≈) assume the structure as drawn.

On to `CCOC(=O)C1CC(c2ccc(OCCc3ccc(CC)cn3)cc2)=NO1` (configuration not stated), for which the MIC came to 16 µg/mL (≈ 43.4 µM) against Escherichia coli [1]; 12 µg/mL (≈ 32.6 µM) against Fusarium verticillioides [2]; 18 µg/mL (≈ 48.9 µM) in the test with Aspergillus flavus [3]; 14 µg/mL (≈ 38 µM) with Trichoderma [6]; 14 µg/mL (≈ 38 µM) with Fusarium oxysporum [8]; 16 µg/mL (≈ 43.4 µM) against Pseudomonas fluorescens [11]. Further, the MIC in test [12] stood at 14 µg/mL (≈ 38 µM); in the test with Bacillus subtilis [13], 20 µg/mL (≈ 54.3 µM); with Xanthomonas oryzae [14], 16 µg/mL (≈ 43.4 µM); in the test on Penicillium sp. [15], 11 µg/mL (≈ 29.9 µM); against Aspergillus niger [19], 17 µg/mL (≈ 46.1 µM). The zone of inhibition at 25 µg/disc was determined as 12 mm in the test on Trichoderma [4]; 9 mm in the test on Xanthomonas oryzae [5]; 8 mm in the test on Aspergillus flavus [7]; 11 mm in the test on Bacillus subtilis [9]; 12 mm in the test with Escherichia coli [10]; 6 mm in the test with Aspergillus niger [16]. The zone of inhibition at 25 µg/disc was 9 mm with Fusarium verticillioides [17]; 9 mm in test [18]; 8 mm with Penicillium sp. [20]; 11 mm with Fusarium oxysporum [21]; 13 mm with Pseudomonas fluorescens [22].
